Earlier results on five compounds are cited in patent US7585520B2, “Compositions containing both sedative and non-sedative antihistamines and sleep aids” (Collegium Pharmaceutical, Inc., priority 2001, dated 2009).

For the data set the following is noted: drug or active metabolite.
In the case of `Clc1ccc2c(c1)CCc1cccnc1C2=C1CCNCC1` [Descarboethoxyloratidine], the Elimination half-life was 17.3 to 24 h. With `Oc1ccc(CCN2CCC(Nc3nc4ccccc4n3Cc3ccc(F)cc3)CC2)cc1` [Desmethylastemizole], the Elimination half-life was 290 h. On to `COc1ccc(CCN2CCC(Nc3nc4ccccc4n3Cc3ccc(F)cc3)CC2)cc1` [Astemizole], for which the Elimination half-life is 20 to 30 h. On to `CC(C)(C)c1ccc(C(=O)CCCN2CCC(OC(c3ccccc3)c3ccccc3)CC2)cc1` [Ebastine], for which the Elimination half-life is 13 to 16 h. Regarding `CN(c1nccc(=O)[nH]1)C1CCN(c2nc3ccccc3n2Cc2ccc(F)cc2)CC1` [Mizolazine], the Elimination half-life was 8 to 13 h.
